Read-outs that look alike come from different tables or passages of the source. Where only a bound is given, the exact number is not on record here.

This passage reports AUC and IC50 results from patent US7498353B2, “Heterocyclic anti-viral compounds comprising metabolizable moieties and their uses” (priority 2005, dated 2009).

Data set [1] in a line: Pharmacokinetic studies in portal/jugular vein cannulated rats after oral administration. It is filed as in vivo, male Spraque-Dawley rats. Particulars: male, Sprague-Dawley, rat, 5 mg/kg oral dose of prodrug. The protocol:
Pharamcokinetic studies were conducted in rats containing surgically implanted cannula in the portal and jugular veins. Blood samples were taken simultaneously from both cannula at various times after oral administration of the compounds. In the portal vein, the prodrugs are detected and, in some cases, the active compound, A-B—C—NHCOCHX2, has also been detected. The presence of active compound in the portal vein samples has been attributed to metabolism of the prodrug in transit through the gut wall. […] In the jugular samples, many, but not all, of the prodrugs have been detected in systemic circulation, depending on the hepatic extraction ratio of the prodrug.
Compounds were dissolved in a mixture of TPGS:PEG:PG (35%:60%:5%) and diluted with saline for oral administration. Typically, 6.5 mg of compound was dissolved in 1 ml of the organic mixture and added to 5.5 ml of saline. Animals were dosed with 5 ml/kg of this mixture to give a typical dose of 5 mg/kg. All animal studies were conducted in male Spraque-Dawley rats and the animals were fasted overnight prior to dose administration. Surgeries (to implant blood sampling cannula) were conducted at least two days prior to the study. Blood samples (100 μl) were collected using sodium heparin as anticoagulant and added to 300 μl of a mixture of acetate buffer (100 mM, pH=6.5):acetonitrile:ethanol:DMSO (2:1:1:2 v/v). Samples were centrifuged and the supernatant was analyzed by LC/MS/MS using the procedures outlined above. Standards were prepared similarly using fresh rat blood from naive animals.
No. 66 and Cpd. No. 64 (Table 3). […] Because the portal blood flows directly to the liver, the intact active parent compound may exert an anti-viral effect in the liver.

Data set [2] concerns HCV NS5A protein in 9-13 replicon cells. Kind of data set: Quantitative Western blot replicon assay (HEPC_REPLICON-ICWESTERN). The data set is classed as cell-based, Hepatitis C virus (HCV). Conditions: Hepatitis C virus, read-out: HEPC_REPLICON-ICWESTERN Result Value (IC50).
For data set [3], the system named is HCV replicon in 5-2 Luc replicon-comprising cells. Nature of the data set: HCV replicon assay, luciferase readout (HEPC_REPLICON-LUC). The data set is classed as cell-based. Conditions: Hepatitis C virus, read-out: HEPC_REPLICON-LUC Result Value (IC50). An excerpt:
In one embodiment, the inhibitory activity of the metabolically active agent of the prodrug can be confirmed in a replicon assay that assesses the ability of a test compound to block or inhibit HCV replication in replicon cells. One example of a suitable replicon assay is the liver cell-line Huh 7-based replicon assay described in Lohmann et al., 1999, Science 285:110-113. A specific example of this replicon assay which utilizes luciferase translation is provided in the Examples Section. In one embodiment of this assay, the amount of test prodrug that yields a 50% reduction in translation as compared to a control cell (IC50) may be determined.
The inhibitory activity of certain prodrugs of the invention, which may inhibit HCV translation or replication prior to metablism and/or are metabolized into active agents, was confirmed using an HCV replicon assay. The HCV replicon can include such features as the HCV 5′ untranslated region including the HCV IRES, the HCV 3′ untranslated region, selected HCV genes encoding HCV polypeptides, selectable markers, and a reporter gene such as luciferase, GFP, etc. In the assay, actively dividing 5-2 Luc replicon-comprising cells (obtained from Ralf Bartenschlager; see Lohmann et al., 1999, Science 285:110-113) were seeded at a density of between about 5,000 and 7,500 cells/well onto 96 well plates (about 90 μl of cells per well) and incubated at 37° C. and 5% CO2 for 24 hours. Then, the test prodrug (in a volume of about 10 μl) was added to the wells at various concentrations and the cells were incubated for an additional 24-48 hours before luciferase assay. The media was aspirated from each well and Bright-Glo (Promega, Madison, Wis.) luciferase assay reagents were added to each well according to the manufacturer's instructions. Briefly, the Bright-Glo reagent was diluted 1:1 with PBS and 100 μl of diluted reagent was added to each well. After 5 min of incubation at room temperature, luciferin emission was quantified with a luminometer. In this assay, the amount of test prodrug that yielded a 50% reduction in luciferase emission (IC50) was determined. This IC50 value may represent the antiviral activity of the prodrug itself, the activity of prodrug transformed into its active metabolized form, or a combination of the two.
In general terms: In antiviral work, replicon cells carry a viral genome segment that copies itself.

For the compound `CCOP(=O)(CCN(C(=O)C(Cl)Cl)c1cccc(-c2cc(-c3c(Cl)cccc3Cl)no2)c1)OCC` [Cpd. No. 1, Diethyl 2-(2,2-Dichloro-N-(3-(3-(2,6-dichlorophenyl)isoxazol-5-yl)phenyl)acetamido)ethylphosphonate], the AUC (as a rule, concentration integrated over time) in data set [1] (in vivo) is 176 ng·h/mL. In addition, the IC50 (usually the concentration that inhibits the measured activity by half) in data set [2] was 1000 to 20000 nM; in data set [3], over 20 µM.

For `COCN(C(=O)C(Cl)Cl)c1cccc(-c2cc(-c3c(Cl)cccc3Cl)no2)c1` [Cpd. No. 6, 2,2-Dichloro-N-(3-(3-(2,6-dichlorophenyl)isoxazol-5-yl)phenyl)-N-(methoxymethyl)acetamide], the AUC in data set [1] (portal vein blood) is 98.3 ng·h/mL. Further, the IC50 in data set [2] (9-13 replicon cells, 50% reduction in NS5A protein) is under 1000 nM; in data set [3] (5-2 Luc replicon cells, 50% reduction in luciferase emission), under 1 µM.
